In the OligoGym collection:
Where “and” joins values, the source holds several entries; their conditions need not be identical. Equal values may be shown once. These antisense oligonucleotides have a phosphorothioate backbone; sugars and methylation of C are not fully specified.

What follows are sequences tested against DUSP9. Conditions: ASO.
Also: test concentration or dose not given here.

Going from GCCCAGACCCTCCATGGGCG to AGACCCTCCATGGGCGATCG, the remaining target (mRNA or protein) (fraction of control) falls from 0.92 to 0.45.

First: CCAGGCAGGAGCGCGCGCAC
Second: GACCCCATCTCCTCCGGCGG
The remaining target (mRNA or protein) (fraction of control) of the first is higher: 0.62 for the first, 0.23 for the second.

Going from CAGCAGGGTGCCCAGCACCG to AGGCCATGGATGTGGGCGGC, the remaining target (mRNA or protein) (fraction of control) falls from ≥ 1 to 0.57.

First: TGACAACACCAGTGATGGCA
Second: CCTCCATGGGCGATCGGCTC
The remaining target (mRNA or protein) (fraction of control) of the first is lower: 0.52 for the first, 0.7 for the second.

Compared with AGCGGCCCAGACCCTCCATG, CTCCTGCGAGTGGCGCTCCT is higher in remaining target (mRNA or protein) (fraction of control): 0.46 for the first, ≥ 1 for the second.

Going from ACCCTCCATGGGCGATCGGC to CGGCCCAGACCCTCCATGGG, the remaining target (mRNA or protein) (fraction of control) rises from 0.43 to 0.57.

Going from GTGGCACACACCCTTCCTGA to CTCATGGAGTCGCGGTCAGC, the remaining target (mRNA or protein) (fraction of control) falls from ≥ 1 to 0.86.

Compared with CCGGGCACTGCCCAGATAGA, AGGAGCAGGAGCCGCGGCCG is higher in remaining target (mRNA or protein) (fraction of control): 0.62 for the first, 0.7 for the second.

First: AAGAACCGCGACAGGTTCTG
Second: GGGCGCTCCGCTCTGCTCGG
The remaining target (mRNA or protein) (fraction of control) of the first is higher: 0.83 for the first, 0.8 for the second.

Compared with AGCCCCAGTGATCCCGTCAA, CATGGGCGATCGGCTCCCTA is lower in remaining target (mRNA or protein) (fraction of control): ≥ 1 for the first, 0.85 for the second.

Going from CGTCGCGGCCGGGAAGTTTC to CGAAGAAGTTTGGGAGGTTG, the remaining target (mRNA or protein) (fraction of control) falls from 0.95 to 0.3.

Going from CGAGCACCCCGCAGTTCTGG to GACAGAAATGAATGACTGTG, the remaining target (mRNA or protein) (fraction of control) falls from 0.94 to 0.14.

First: CGAGCCCTCCTGCCCTCCCC
Second: TGGGCAGGGACACCCGTGGG
The remaining target (mRNA or protein) (fraction of control) of the first is lower: 0.65 for the first, 0.79 for the second.

Compared with CCACGGGCACTGGACCGGGC, TGGGCGATCGGCTCCCTACA is higher in remaining target (mRNA or protein) (fraction of control): 0.5 for the first, 0.91 for the second.

The sequences below were run against SELE. Conditions: ASO.

First: GGAATGCAAAGCACATCCAT
Second: TATAGGAGTTTTGATGTGAA
The remaining target (mRNA or protein) (fraction of control) of the first is lower: 0.71 for the first, 0.74 for the second.

Going from CCAATCATGACTTCAAGAGTT to GAGTTCTTTTCACCC, the remaining target (mRNA or protein) (fraction of control) rises from 0.32 to 0.63.

Going from GAAATACTTTCCTCCGTTTTG to GTTTAAGGCAGCATCCTAAGA, the remaining target (mRNA or protein) (fraction of control) falls from ≥ 1 to 0.38.

Compared with GGGGAGATAAAACACAAAATG, GCATGTCACAGCTGTAACAAA is lower in remaining target (mRNA or protein) (fraction of control): 0.79 for the first, 0.5 for the second.

Compared with CAATCATGACTTCAAGAGTTC, CTGATTCAAGGCTTTGGCAG is lower in remaining target (mRNA or protein) (fraction of control): 0.77 for the first, 0.55 for the second.

Going from TCCTCTCTTCCAGAGCACCC to CTGCTGCCTCTGTCTCAGGT, the remaining target (mRNA or protein) (fraction of control) falls from ≥ 1 to 0.07.

First: CACAATCCTTAAGAACTCTTT
Second: ACCACACTGGTATTTCACAC
The remaining target (mRNA or protein) (fraction of control) of the first is lower: 0.31 for the first, 0.67 for the second.

Compared with CTTTCCTGGGGAGATAAA, TGAAGTCAGCCAAGAACAGCT is lower in remaining target (mRNA or protein) (fraction of control): 0.96 for the first, 0.08 for the second.

In the case of TGAAGCAATCATGACTTCAAG, the remaining target (mRNA or protein) (fraction of control) is reported as ≥ 1 and 0.51.
With AATCATGACTTCAAGAGTTCT the remaining target (mRNA or protein) (fraction of control) was 0.78 and 0.53.

What follows are sequences tested against DUSP8. Conditions: ASO.

Compared with AGAGCGGGAGATGCCAGCCA, GGCAGGCAGGGCTGGGAGAG is higher in remaining target (mRNA or protein) (fraction of control): 0.32 for the first, ≥ 1 for the second.

TTCTTTGCATTATATATAAT was tested, and the remaining target (mRNA or protein) (fraction of control) was ≥ 1.
